Drawing on ChEMBL document CHEMBL4732145, “Discovery of a PROTAC targeting ALK with in vivo activity” (Eur J Med Chem, 2021), this text covers IC50, Activity and inhibition in vivo for ten compounds.

The IC50 is the concentration at which inhibition is half-maximal.

The subject of one data set is HeLa. The data set can be described thus: Antiproliferative activity against human HeLa cells assessed as reduction in cell viability measured after 72 hrs by MTT assay. For orientation: Formazan colour is commonly taken as a measure of viable cells.
In another data set the test system is NCI-H2228. The data set is described as follows: Antiproliferative activity against human NCI-H2228 cells assessed as reduction in cell viability measured after 72 hrs by MTT assay. Particulars: NCI-H2228, 72 h.
The test system of data set [1] is NCI-H3122. The data set is described as follows: Antiproliferative activity against human NCI-H3122 cells assessed as reduction in cell viability measured after 72 hrs by MTT assay. Particulars: NCI-H3122, 72 h.
The test system of another data set is NCI-H1299. The data set is described as follows: Antiproliferative activity against human NCI-H1299 cells assessed as reduction in cell viability measured after 72 hrs by MTT assay. Particulars: NCI-H1299, 72 h.
The subject of the next data set is A549. The data set can be described thus: Antiproliferative activity against human A549 cells assessed as reduction in cell viability measured after 72 hrs by MTT assay. Particulars: A549, 72 h.
The test system of another data set is LO2 (Homo sapiens). The data set can be described thus: Cytotoxicity against human L02 cells assessed as reduction in cell viability measured after 72 hrs by MTT assay. Particulars: l02, 72 h.
The subject of data set [2] is NCI-H3122. The data set can be described thus: Antitumor activity against human NCI-H3122 cells xenografted in BALB/c nude mouse assessed as tumor growth inhibition at 25 mg/kg/day, ig administered for 15 days relative to control. Type of data set: functional. Particulars: NCI-H3122, po, 360 h, time 15 day, read-out: TGI. (In general: Xenograft models place foreign cells or tissue in a host animal.)

The target in data set [3] is von Hippel-Lindau disease tumor suppressor/ALK tyrosine kinase receptor/Nucleophosmin (Homo sapiens) (UniProt Q9UM73+P06748+P40337). The data set is described as follows: Protac activity at VHL/NPM-ALK fusion protein in human SU-DHL-1 cells assessed as induction of NPM-ALK fusion protein degradation at 1 uM by Western blot analysis relative to control. Type of data set: cell-based. Background: In western blotting, separated proteins are transferred to a membrane and probed.
Chain of von Hippel-Lindau disease tumor suppressor/ALK tyrosine kinase receptor/Nucleophosmin (Homo sapiens) (P06748 whole entry partner, the tested form may be a part): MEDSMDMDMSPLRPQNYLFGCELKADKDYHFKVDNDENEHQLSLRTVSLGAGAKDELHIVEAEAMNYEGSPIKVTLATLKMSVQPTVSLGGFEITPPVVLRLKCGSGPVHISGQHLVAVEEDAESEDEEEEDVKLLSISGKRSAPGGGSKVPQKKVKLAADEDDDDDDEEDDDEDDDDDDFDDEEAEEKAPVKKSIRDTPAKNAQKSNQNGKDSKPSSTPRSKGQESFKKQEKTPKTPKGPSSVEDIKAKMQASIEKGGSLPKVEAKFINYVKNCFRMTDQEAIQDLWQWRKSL
Chain of von Hippel-Lindau disease tumor suppressor/ALK tyrosine kinase receptor/Nucleophosmin (Homo sapiens) (P40337 whole entry partner, the tested form may be a part): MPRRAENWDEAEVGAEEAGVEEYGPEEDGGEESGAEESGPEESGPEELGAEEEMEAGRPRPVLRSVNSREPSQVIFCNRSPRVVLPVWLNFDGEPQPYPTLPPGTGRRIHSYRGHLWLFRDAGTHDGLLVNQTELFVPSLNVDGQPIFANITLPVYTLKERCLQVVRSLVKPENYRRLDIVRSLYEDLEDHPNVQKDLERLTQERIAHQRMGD
Chain of von Hippel-Lindau disease tumor suppressor/ALK tyrosine kinase receptor/Nucleophosmin (Homo sapiens) (Q9UM73 19-1620 limits assumed): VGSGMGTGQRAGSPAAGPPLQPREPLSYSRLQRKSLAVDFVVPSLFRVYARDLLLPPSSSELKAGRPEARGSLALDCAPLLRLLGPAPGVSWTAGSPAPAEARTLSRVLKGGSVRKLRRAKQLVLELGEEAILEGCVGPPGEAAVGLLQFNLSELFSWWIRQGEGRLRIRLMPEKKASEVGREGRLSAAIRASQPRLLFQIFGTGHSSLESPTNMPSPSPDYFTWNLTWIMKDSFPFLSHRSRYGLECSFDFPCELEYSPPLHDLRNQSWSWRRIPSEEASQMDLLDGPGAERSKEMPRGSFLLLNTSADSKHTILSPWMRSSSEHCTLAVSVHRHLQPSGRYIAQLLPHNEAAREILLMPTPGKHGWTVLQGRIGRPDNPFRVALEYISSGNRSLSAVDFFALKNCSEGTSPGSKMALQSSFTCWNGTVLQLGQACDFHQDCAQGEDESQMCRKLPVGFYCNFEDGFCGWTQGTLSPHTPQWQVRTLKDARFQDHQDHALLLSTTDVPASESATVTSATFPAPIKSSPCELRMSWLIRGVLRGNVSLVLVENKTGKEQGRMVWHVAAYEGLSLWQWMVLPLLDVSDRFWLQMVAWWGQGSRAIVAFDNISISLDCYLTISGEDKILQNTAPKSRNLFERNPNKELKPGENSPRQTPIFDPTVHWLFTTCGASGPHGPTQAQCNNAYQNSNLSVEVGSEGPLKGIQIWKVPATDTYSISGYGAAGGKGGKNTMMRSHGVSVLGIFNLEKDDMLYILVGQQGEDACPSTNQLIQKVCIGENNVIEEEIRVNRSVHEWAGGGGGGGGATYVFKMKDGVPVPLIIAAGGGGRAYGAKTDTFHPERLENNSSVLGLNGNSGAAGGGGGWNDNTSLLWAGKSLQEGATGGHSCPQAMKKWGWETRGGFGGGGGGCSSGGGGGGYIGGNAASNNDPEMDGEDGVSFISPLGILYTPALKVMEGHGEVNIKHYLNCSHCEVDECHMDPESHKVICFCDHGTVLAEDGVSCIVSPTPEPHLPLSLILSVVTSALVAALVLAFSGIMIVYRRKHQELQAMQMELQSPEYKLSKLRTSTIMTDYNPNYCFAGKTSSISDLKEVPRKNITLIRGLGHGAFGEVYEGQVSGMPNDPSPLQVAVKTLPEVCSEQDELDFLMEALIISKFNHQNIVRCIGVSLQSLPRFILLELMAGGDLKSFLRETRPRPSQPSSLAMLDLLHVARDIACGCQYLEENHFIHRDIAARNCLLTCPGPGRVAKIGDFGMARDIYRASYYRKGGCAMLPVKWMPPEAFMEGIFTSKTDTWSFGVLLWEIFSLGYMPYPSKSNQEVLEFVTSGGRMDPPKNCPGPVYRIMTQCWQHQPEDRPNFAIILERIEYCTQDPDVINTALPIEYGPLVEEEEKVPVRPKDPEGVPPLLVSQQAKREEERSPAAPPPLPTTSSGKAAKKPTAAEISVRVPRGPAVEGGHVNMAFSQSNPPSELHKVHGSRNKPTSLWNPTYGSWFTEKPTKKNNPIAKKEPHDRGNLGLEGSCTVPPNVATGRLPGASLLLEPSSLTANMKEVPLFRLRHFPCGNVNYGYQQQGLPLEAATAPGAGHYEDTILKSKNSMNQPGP

`Cc1cc(Nc2ncc(Cl)c(Nc3ccccc3S(=O)(=O)C(C)C)n2)c(OC(C)C)cc1C1CCN(CCC(=O)NCCCCCCCCNCC(=O)Nc2cccc3c2C(=O)N(C2CCC(=O)NC2=O)C3=O)CC1` (centres undefined): the IC50 is 7.67 µM in the data set with HeLa; 15.1 µM in the data set on NCI-H2228; 2660 nM in the data set with NCI-H3122 [1]; over 20 µM in the data set with NCI-H1299; over 20 µM with A549. Also, in the data set with LO2 (Homo sapiens), the Activity result is given as “Toxic”.

Take `Cc1cc(Nc2ncc(Cl)c(Nc3ccccc3S(=O)(=O)C(C)C)n2)c(OC(C)C)cc1C1CCN(CCC(=O)NCCCCNCC(=O)Nc2cccc3c2C(=O)N(C2CCC(=O)NC2=O)C3=O)CC1` (centres undefined): the IC50 with HeLa is 8.15 µM; with NCI-H2228 it was 8.7 µM; in the data set on NCI-H3122 [1], 3520 nM; in the data set on NCI-H1299, over 20 µM; in the data set on A549, 13.4 µM. Also, the Activity entry in the data set with LO2 (Homo sapiens) is “Toxic”.

For the compound `Cc1cc(Nc2ncc(Cl)c(Nc3ccccc3S(=O)(=O)C(C)C)n2)c(OC(C)C)cc1C1CCNCC1` [CERITINIB], the half-maximal inhibitory concentration (IC50) in the data set on HeLa came out at 0.94 µM; with NCI-H2228, 1.3 µM; in the data set on NCI-H1299, 2.92 µM; in the data set with A549, 1.32 µM. In addition, in the data set with NCI-H3122 [2], the inhibition in vivo at 25 mg/kg/day was 49%.

Regarding `Cc1cc(Nc2ncc(Cl)c(Nc3ccccc3S(=O)(=O)C(C)C)n2)c(OC(C)C)cc1C1CCN(C(=O)CCCC(=O)N[C@H](C(=O)N2C[C@H](O)C[C@H]2C(=O)NCc2ccc(-c3scnc3C)cc2)C(C)(C)C)CC1`, the Activity in data set [3] was over 90%.

`Cc1cc(Nc2ncc(Cl)c(Nc3ccccc3S(=O)(=O)C(C)C)n2)c(OC(C)C)cc1C1CCN(CCC(=O)NCCOCCNCC(=O)Nc2cccc3c2C(=O)N(C2CCC(=O)NC2=O)C3=O)CC1` (centres undefined): the IC50 stood at 5.78 µM in the data set on HeLa; 5.74 µM in the data set on NCI-H2228; 1830 nM in the data set on NCI-H3122 [1]; 7.23 µM in the data set with NCI-H1299; 6.73 µM in the data set with A549. In the data set with LO2 (Homo sapiens), the Activity entry is “Toxic”.

Consider `Cc1cc(Nc2ncc(Cl)c(Nc3ccccc3S(=O)(=O)C(C)C)n2)c(OC(C)C)cc1C1CCN(CCC(=O)NCCCCCCNCC(=O)Nc2cccc3c2C(=O)N(C2CCC(=O)NC2=O)C3=O)CC1` (centres undefined), for which the IC50 with HeLa was 4.36 µM; in the data set with NCI-H2228, 3.1 µM; in the data set on NCI-H3122 [1], 1100 nM; in the data set with NCI-H1299, over 20 µM; in the data set with A549, 5.13 µM. The Activity result with LO2 (Homo sapiens) was “Toxic”.

In the case of `Cc1cc(Nc2ncc(Cl)c(Nc3ccccc3S(=O)(=O)C(C)C)n2)c(OC(C)C)cc1C1CCN(CCC(=O)NCCOCCNCCC(=O)Nc2cccc3c2C(=O)N(C2CCC(=O)NC2=O)C3=O)CC1` (centres undefined), the IC50 with HeLa worked out at 7.98 µM; in the data set on NCI-H2228, 5.2 µM; with NCI-H3122 [1] it was 4860 nM; with NCI-H1299, 12.3 µM; in the data set with A549, 10.9 µM. Moreover, in the data set on LO2 (Homo sapiens), the Activity result was “Toxic”.

As to `Cc1cc(Nc2ncc(Cl)c(Nc3ccccc3S(=O)(=O)C(C)C)n2)c(OC(C)C)cc1C1CCN(CCC(=O)NCCOCCOCCNc2cccc3c2C(=O)N(C2CCC(=O)NC2=O)C3=O)CC1` (centres undefined), the half-maximal inhibitory concentration (IC50) is 2.23 µM in the data set with HeLa; 3.5 µM in the data set with NCI-H2228; 700 nM in the data set with NCI-H3122 [1]; 7.59 µM with NCI-H1299; 2.6 µM in the data set with A549. In the data set on LO2 (Homo sapiens), the Activity result is “Toxic”.

With `Cc1cc(Nc2ncc(Cl)c(Nc3ccccc3S(=O)(=O)C(C)C)n2)c(OC(C)C)cc1C1CCN(CCC(=O)NCCOCCOCCNCC(=O)Nc2cccc3c2C(=O)N(C2CCC(=O)NC2=O)C3=O)CC1` (centres undefined), the IC50 amounted to 5.86 µM with HeLa; 4.51 µM in the data set with NCI-H2228; 2340 nM in the data set on NCI-H3122 [1]; 10.9 µM with NCI-H1299; 5.81 µM in the data set on A549. Moreover, the Activity result with LO2 (Homo sapiens) is given as “Toxic”.

For the compound `Cc1cc(Nc2ncc(Cl)c(Nc3ccccc3S(=O)(=O)C(C)C)n2)c(OC(C)C)cc1C1CCN(CCC(=O)NCCCCNC(=O)COc2cccc3c2C(=O)N(C2CCC(=O)NC2=O)C3=O)CC1` (centres undefined), the IC50 with HeLa is 6.99 µM; in the data set on NCI-H2228, over 20 µM; in the data set on NCI-H3122 [1], 1300 nM; in the data set with NCI-H1299, 9.33 µM; with A549, over 20 µM. Besides, in the data set on LO2 (Homo sapiens), the Activity result is listed as “Toxic”.
